In ChEMBL document CHEMBL1152070, “-cyano-substituted analogoues of decarboxylated S-adenosylmethionine as enzyme activated, irreversible inhibitors of S-adenosylmethionine decarboxylase” (Bioorg Med Chem Lett, 1993):

Experiments:
[1] = biological target: T1, S-adenosylmethionine decarboxylase proenzyme (Homo sapiens) (UniProt P17707); assay: Compound was evaluated for Enzyme kinetic inactivation constant: Kinact for S-Adenosyl-methionine decarboxylase (AdoMet-DC) enzyme
T1 sequence (whole entry): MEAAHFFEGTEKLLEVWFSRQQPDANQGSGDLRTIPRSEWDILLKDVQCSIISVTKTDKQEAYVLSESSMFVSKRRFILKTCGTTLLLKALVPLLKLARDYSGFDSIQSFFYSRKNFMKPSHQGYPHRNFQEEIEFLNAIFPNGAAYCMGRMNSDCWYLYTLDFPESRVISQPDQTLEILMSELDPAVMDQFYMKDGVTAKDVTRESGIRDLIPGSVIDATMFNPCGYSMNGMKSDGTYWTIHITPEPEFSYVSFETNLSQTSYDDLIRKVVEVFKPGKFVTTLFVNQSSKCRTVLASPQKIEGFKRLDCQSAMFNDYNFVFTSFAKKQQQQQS

[2] = biological target: T2, S-adenosylmethionine decarboxylase proenzyme (Homo sapiens, UniProt P17707); assay: Compound was evaluated to inactivate the human AdoMet-DC
T2 sequence (P17707 whole entry): T1 sequence (whole entry)

| K inact [1] [min⁻¹] | Ki [2] [µM] | K inact ([1]; Escherichia coli) [min⁻¹] | SMILES |
| --- | --- | --- | --- |
| 0.03 | 7.2 | – | C[S+](CCCC(N)C#N)C[C@H]1O[C@@H](n2cnc3c(N)ncnc32)[C@H](O)[C@@H]1O (stereo not given in full) |
| 0.29 | 247 | 0.06 | C[S+](CCC(N)C#N)C[C@H]1O[C@@H](n2cnc3c(N)ncnc32)[C@H](O)[C@@H]1O (stereo not given in full) |
